Measured values published in US11464780B2, “Pyrazolopyrimidine derivative and use thereof” (Simcere Pharmaceutical Co. Ltd., priority 2018, dated 2022).
Like-named read-outs stand apart in the source and are kept apart here.

Columns and labels:
Ros-G2032R = biological target: T1, Ros-G2032R (Homo sapiens, UniProt P08922, G2032R); assay: Kinase inhibitory activity (33P-ATP filter binding, Reaction Biology Corp.); assay type: biochemical; details: read-out: The half maximal inhibitory concentration IC50 on the kinases, Ros-G2032R
T1 construct: purchased Reaction Biology Corp. (contract assay)
T1 sequence (P08922 28-2347 G2032R): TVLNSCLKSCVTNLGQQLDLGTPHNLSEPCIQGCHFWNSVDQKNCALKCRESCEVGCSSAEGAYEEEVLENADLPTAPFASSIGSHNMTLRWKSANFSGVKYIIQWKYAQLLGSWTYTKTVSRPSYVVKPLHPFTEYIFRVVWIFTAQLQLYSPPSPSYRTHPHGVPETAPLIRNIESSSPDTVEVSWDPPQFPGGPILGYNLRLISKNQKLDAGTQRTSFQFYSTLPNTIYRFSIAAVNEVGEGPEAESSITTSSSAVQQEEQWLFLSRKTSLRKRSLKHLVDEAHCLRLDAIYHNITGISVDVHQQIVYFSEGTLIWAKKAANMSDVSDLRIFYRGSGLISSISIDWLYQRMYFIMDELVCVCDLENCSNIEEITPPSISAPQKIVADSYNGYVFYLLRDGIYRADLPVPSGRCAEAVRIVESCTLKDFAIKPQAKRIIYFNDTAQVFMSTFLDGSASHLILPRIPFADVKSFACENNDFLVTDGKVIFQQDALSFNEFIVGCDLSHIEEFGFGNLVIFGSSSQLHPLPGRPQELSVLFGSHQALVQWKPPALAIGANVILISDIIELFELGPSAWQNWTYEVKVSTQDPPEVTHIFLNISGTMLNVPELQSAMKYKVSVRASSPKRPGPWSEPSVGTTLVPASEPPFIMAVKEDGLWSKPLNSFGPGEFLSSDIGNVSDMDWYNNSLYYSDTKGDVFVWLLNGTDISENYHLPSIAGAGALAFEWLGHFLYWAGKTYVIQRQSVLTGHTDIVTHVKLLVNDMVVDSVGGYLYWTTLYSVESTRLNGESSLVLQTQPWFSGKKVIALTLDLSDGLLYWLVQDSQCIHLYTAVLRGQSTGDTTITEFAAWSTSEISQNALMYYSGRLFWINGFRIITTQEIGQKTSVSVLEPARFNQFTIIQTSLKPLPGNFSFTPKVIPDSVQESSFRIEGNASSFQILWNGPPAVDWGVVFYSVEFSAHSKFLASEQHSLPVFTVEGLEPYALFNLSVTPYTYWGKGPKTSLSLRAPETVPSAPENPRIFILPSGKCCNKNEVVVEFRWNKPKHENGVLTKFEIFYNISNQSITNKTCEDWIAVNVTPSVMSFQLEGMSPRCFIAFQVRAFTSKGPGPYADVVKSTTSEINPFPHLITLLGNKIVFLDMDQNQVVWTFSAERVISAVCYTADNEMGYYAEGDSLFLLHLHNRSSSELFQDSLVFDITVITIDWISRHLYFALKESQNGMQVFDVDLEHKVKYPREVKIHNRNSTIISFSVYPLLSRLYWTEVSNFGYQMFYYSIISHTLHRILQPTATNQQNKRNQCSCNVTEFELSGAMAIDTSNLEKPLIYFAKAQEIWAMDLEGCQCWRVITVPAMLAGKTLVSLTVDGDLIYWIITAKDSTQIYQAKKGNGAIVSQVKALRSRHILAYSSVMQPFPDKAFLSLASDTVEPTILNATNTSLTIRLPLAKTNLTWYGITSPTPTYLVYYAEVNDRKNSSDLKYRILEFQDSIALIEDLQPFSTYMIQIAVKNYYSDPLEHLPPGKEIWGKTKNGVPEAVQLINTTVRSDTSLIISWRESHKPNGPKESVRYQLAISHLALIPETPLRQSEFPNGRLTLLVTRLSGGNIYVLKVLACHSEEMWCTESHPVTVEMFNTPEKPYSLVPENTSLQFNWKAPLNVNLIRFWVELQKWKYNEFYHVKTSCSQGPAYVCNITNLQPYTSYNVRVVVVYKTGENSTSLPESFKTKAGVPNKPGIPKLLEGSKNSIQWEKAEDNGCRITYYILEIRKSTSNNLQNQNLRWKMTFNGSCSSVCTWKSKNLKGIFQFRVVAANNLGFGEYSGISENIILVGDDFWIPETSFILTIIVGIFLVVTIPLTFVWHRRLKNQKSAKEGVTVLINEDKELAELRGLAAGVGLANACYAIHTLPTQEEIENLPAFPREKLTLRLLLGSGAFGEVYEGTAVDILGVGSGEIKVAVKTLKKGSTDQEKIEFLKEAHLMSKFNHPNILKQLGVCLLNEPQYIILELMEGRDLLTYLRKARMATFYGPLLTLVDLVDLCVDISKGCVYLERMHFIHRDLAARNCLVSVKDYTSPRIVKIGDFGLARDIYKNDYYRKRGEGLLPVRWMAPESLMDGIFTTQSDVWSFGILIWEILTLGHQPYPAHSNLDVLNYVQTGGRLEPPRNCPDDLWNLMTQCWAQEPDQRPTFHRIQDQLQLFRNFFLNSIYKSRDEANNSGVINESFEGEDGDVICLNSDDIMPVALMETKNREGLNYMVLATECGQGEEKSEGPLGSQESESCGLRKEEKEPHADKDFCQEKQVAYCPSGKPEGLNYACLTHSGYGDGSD
Outline: (§1)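 Radioactivity was read by filter binding. Activity was expressed as remaining activity relative to DMSO control, and IC50 came from dose-effect curve fitting.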

TrkA = biological target: T2, TrkA (Homo sapiens, UniProt P04629); assay: as above; assay type: biochemical; details: read-out: The half maximal inhibitory concentration IC50 on the kinases, TrkA
T2 construct: purchased Reaction Biology Corp. (contract assay)
T2 sequence (P04629 33-796): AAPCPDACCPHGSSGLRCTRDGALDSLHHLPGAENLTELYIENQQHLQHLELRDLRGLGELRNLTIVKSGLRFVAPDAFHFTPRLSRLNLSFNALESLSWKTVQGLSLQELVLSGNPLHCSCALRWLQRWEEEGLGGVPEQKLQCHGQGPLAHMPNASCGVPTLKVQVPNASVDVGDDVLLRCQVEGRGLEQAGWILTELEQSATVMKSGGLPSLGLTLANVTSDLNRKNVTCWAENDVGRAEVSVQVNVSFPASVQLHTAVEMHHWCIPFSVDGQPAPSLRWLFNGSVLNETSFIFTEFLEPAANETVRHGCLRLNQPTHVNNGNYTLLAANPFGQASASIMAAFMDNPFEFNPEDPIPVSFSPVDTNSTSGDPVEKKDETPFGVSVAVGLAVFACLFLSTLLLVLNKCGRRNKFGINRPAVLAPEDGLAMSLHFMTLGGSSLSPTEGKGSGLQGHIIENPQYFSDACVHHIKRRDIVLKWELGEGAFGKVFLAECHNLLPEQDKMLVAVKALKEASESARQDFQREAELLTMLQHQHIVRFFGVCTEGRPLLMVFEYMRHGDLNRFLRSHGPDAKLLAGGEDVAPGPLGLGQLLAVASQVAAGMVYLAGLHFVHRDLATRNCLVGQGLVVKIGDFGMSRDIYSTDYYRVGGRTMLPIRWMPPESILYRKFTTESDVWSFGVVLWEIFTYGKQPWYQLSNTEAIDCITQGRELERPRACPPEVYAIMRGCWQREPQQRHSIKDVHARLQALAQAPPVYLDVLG
Outline: as §1

ALK = biological target: T3, ALK (Homo sapiens, UniProt Q9UM73); assay: as above; assay type: biochemical; details: read-out: The half maximal inhibitory concentration IC50 on the kinases, ALK
T3 construct: purchased Reaction Biology Corp. (contract assay)
Outline: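 Compounds (10 concentrations, 3-fold dilutions, 2% DMSO final) preincubated 20 min at room temperature with kinase and substrate in Hepes pH 7.5 buffer. Reaction started with ^33P-ATP, 120 min at room temperature; filter-binding radioactivity expressed as activity remaining versus DMSO control, IC50 from fitted dose-response curve.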

[1] = biological target: T4, Ba/F3 LMNA-NTRK1-WT stably transfected cell line (Homo sapiens, UniProt P04629); assay: Cell proliferation inhibition (CellTiter-Glo); assay type: cell-based; details: 72 hours, read-out: The half maximal inhibitory concentration IC50 against cells, Ba/F3 LMNA-NTRK1-WT
T4 construct: fused on or other part: P02545 (Prelamin-A/C)
T4 sequence (P04629 whole entry, stated change not applied, the tested form may be a part): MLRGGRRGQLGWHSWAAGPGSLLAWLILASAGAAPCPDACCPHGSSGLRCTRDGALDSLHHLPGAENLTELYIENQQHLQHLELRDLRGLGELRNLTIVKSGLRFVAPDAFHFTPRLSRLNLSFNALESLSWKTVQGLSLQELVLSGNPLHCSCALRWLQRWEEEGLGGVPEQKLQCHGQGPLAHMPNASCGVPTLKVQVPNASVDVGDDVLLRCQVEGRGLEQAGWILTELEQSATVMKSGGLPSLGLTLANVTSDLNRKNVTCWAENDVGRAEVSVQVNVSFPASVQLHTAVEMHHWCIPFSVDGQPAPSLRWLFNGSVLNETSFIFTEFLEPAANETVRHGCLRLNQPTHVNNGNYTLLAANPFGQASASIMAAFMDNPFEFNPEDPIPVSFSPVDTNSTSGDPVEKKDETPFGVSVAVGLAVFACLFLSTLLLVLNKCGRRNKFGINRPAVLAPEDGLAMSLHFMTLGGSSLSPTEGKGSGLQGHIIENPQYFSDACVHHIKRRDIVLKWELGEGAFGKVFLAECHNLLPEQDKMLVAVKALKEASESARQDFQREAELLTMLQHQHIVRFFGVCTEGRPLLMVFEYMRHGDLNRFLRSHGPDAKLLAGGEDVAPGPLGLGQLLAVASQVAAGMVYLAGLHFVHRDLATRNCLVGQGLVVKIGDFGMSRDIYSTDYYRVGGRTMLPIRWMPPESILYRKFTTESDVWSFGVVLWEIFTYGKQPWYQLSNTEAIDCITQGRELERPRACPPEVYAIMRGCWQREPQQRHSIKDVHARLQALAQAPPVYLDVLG
Outline: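 Stably transfected Ba/F3 cells (≥90% viable) were seeded overnight, then exposed in triplicate to a 9-point, 3-fold series (highest 10 μM, prepared as 10× solutions) for 72 h at 37 °C, 5% CO2. Viability was read by ATP luminescence, and IC50 came from a nonlinear sigmoidal fit.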

[2] = biological target: T5, Ba/F3 LMNA-NTRK1-F589L stably transfected cell line (Homo sapiens, UniProt P04629, F589L, cells depend on it); assay: Cell proliferation inhibition (CellTiter-Glo); assay type: cell-based; details: 72 hours, read-out: The half maximal inhibitory concentration IC50 against cells, Ba/F3 LMNA-NTRK1-F589L
T5 construct: fused on or other part: P02545 (Prelamin-A/C)
T5 sequence (P04629 whole entry F589L, the tested form may be a part): as the sequence (P04629 whole entry, stated change not applied, the tested form may be a part) above, with F589L counted along it

[3] = biological target: T6, Ba/F3 LMNA-NTRK1-G595R stably transfected cell line (Homo sapiens, UniProt P04629, G595R, cells depend on it); assay: Cell proliferation inhibition (CellTiter-Glo); assay type: cell-based; details: 72 hours, read-out: The half maximal inhibitory concentration IC50 against cells, Ba/F3 LMNA-NTRK1-G595R
T6 construct: fused on or other part: P02545 (Prelamin-A/C)
T6 sequence (P04629 whole entry G595R, the tested form may be a part): as the sequence (P04629 whole entry, stated change not applied, the tested form may be a part) above, with G595R counted along it

[4] = biological target: T7, BaF3 ETV6-NTRK3-G623R stably transfected cell line (Homo sapiens, UniProt Q16288, G623R, cells depend on it); assay: Cell proliferation inhibition (CellTiter-Glo); assay type: cell-based; details: 72 hours, read-out: The half maximal inhibitory concentration IC50 against cells, BaF3 ETV6-NTRK3-G623R
T7 construct: fused on or other part: P41212 (Transcription factor ETV6)
T7 sequence (Q16288 whole entry G623R, the tested form may be a part): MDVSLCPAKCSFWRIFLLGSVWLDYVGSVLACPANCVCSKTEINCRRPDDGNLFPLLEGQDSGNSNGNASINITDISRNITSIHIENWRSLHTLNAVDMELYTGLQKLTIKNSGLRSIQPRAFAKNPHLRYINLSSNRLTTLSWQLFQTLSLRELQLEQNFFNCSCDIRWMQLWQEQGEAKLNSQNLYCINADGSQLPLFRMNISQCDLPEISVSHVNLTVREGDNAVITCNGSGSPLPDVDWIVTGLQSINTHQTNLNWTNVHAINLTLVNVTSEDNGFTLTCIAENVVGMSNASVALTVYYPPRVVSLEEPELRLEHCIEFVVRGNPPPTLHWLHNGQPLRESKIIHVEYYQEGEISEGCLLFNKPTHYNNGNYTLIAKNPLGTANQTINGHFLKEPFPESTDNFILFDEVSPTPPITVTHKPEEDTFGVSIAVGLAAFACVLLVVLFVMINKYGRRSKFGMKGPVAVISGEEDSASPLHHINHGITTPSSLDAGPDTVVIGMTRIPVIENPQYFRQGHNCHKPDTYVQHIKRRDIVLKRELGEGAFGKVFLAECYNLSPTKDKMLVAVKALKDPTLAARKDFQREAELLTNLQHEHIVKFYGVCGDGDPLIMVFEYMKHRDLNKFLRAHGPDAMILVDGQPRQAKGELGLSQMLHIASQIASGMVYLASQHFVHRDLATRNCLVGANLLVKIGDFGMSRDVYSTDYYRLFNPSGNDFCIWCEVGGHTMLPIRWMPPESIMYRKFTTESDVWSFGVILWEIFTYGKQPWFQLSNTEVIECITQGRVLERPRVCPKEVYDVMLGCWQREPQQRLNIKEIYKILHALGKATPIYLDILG

[5] = biological target: T8, Ba/F3 SLC34A2-ROS1-G2032R stably transfected cell line (Homo sapiens, UniProt P08922, G2032R, cells depend on it); assay: Cell proliferation inhibition (CellTiter-Glo); assay type: cell-based; details: 72 hours, read-out: The half maximal inhibitory concentration IC50 against cells, Ba/F3 SLC34A2-ROS1-G2032R
T8 construct: fused on or other part: O95436 (Sodium-dependent phosphate transport protein 2B)

[6] = In vivo pharmacokinetic test in mice; parameters: species or system male CD-1 mice; details: for Cmax: read-out: Peak concentration Cmax; for AUC(0-t): read-out: Area under the curve AUC0-last
Outline: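 Male CD-1 mice, 7-9 weeks, given a single IV (3 mg/kg) or intragastric dose in 5% DMSO/10% solutol/85% water. Plasma drug levels measured by LC/MS/MS at multiple time points to derive PK parameters.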

[7] = male, CD-1, mouse, plasma, PO dose of 10 mL/kg

O=C1NC2(CC2)COc2ncc(F)cc2[C@H]2CCON2c2ccn3ncc1c3n2 [WX002A]
IC50 (Ros-G2032R): 0.4 nM | IC50 (TrkA): 2.07 nM | IC50 (ALK): 13 nM | GI50 [1]: 1.26 nM | GI50 [2]: 0.78 nM | GI50 [3]: 6.2 nM | GI50 [4]: 3.4 nM | GI50 [5]: 16.1 nM | Apparent clearance Cl ([6]; IV dose of 3 mg/kg): 7.2 mL/min/kg | Apparent volume of distribution Vd ([6]; IV dose of 3 mg/kg): 0.49 L/kg | Area under the curve AUC0-last ([6]; IV dose of 3 mg/kg): 17.502 µM·h | Half life T1/2 ([6]; IV dose of 3 mg/kg): 45 min | Area under the curve AUC0-last ([6]; PO dose of 10 mL/kg): 29.787 µM·h | Time of peak concentration Tmax ([6]; PO dose of 10 mL/kg): 30 min | Bioavailability F % ([6]; PO dose of 10 mL/kg vs IV 3 mg/kg): 51% | Cmax ([6]; PO dose of 10 mL/kg): 9.14 µM

O=C1N[C@@H]2COC[C@@H]2Oc2ncc(F)cc2[C@H]2CCON2c2ccn3ncc1c3n2 [WX008A]
IC50 (Ros-G2032R): 0.52 nM | IC50 (TrkA): 1.61 nM | IC50 (ALK): 10.4 nM | GI50 [1]: 1.6 nM | GI50 [2]: 1.59 nM | GI50 [3]: 3.92 nM | GI50 [4]: 3.49 nM | GI50 [5]: 38.5 nM | Apparent clearance Cl ([6]; IV dose of 3 mg/kg): 6.7 mL/min/kg | Vd ([6]; male, CD-1, mouse, plasma, IV dose of 3 mg/kg, read-out: Apparent volume of distribution Vd): 0.62 L/kg | AUC(0-t) ([6]; male, CD-1, mouse, plasma, IV dose of 3 mg/kg): 18.2 µM·h | half-life ([6]; male, CD-1, mouse, plasma, IV dose of 3 mg/kg, read-out: Half life T1/2 (converted)): 68.4 min | bioavailability ([6]; male, CD-1, mouse, plasma, PO dose of 10 mL/kg vs IV 3 mg/kg, read-out: Bioavailability F %): 65% | AUC(0-t) [6, 7]: 39.6 µM·h | Cmax [6, 7]: 12.2 µM | Tmax ([6]; male, CD-1, mouse, plasma, PO dose of 10 mL/kg, read-out: Time of peak concentration Tmax): 15 min
